From the NIST ThermoML archive (doi:10.1016/j.jct.2016.09.005)

Settings: Brillouin Light Scattering

CC(C)OC(C)C [diisopropyl ether]
Settings	speed of sound [m/s]
432.85 K, 1000 kPa, Liquid	434.31
433.18 K, 2500 kPa, Liquid	464.16
433.27 K, 4000 kPa, Liquid	498.85
437.97 K, 5500 kPa, Liquid	515.55
438.45 K, 8500 kPa, Liquid	566.84
438.48 K, 10000 kPa, Liquid	599.89
438.69 K, 7000 kPa, Liquid	537.87
438.94 K, 2500 kPa, Liquid	440.93
439.03 K, 4000 kPa, Liquid	475.92
442.55 K, 7000 kPa, Liquid	521.69
442.6 K, 4000 kPa, Liquid	461.81
442.85 K, 8500 kPa, Liquid	551.1
442.96 K, 10000 kPa, Liquid	583.95
443.09 K, 5500 kPa, Liquid	494.52
443.48 K, 2500 kPa, Liquid	424.11
447.46 K, 2500 kPa, Liquid	407.02
447.46 K, 10000 kPa, Liquid	569.2
447.74 K, 5500 kPa, Liquid	476.22
448.06 K, 8500 kPa, Liquid	530.98
448.43 K, 4000 kPa, Liquid	436.29
448.7 K, 7000 kPa, Liquid	505.01
453.11 K, 2500 kPa, Liquid	380.57
453.12 K, 5500 kPa, Liquid	456.86
453.5 K, 4000 kPa, Liquid	418.12
453.57 K, 10000 kPa, Liquid	548.35
453.75 K, 8500 kPa, Liquid	518.95
454.24 K, 7000 kPa, Liquid	488.02
457.15 K, 2500 kPa, Liquid	366.77
457.57 K, 10000 kPa, Liquid	539.84
457.63 K, 8500 kPa, Liquid	503.76
457.7 K, 7000 kPa, Liquid	475.35
457.87 K, 4000 kPa, Liquid	397.64
458.03 K, 5500 kPa, Liquid	440.35
462.93 K, 4000 kPa, Liquid	377.89
463.16 K, 7000 kPa, Liquid	457.86
463.6 K, 8500 kPa, Liquid	488.56
463.85 K, 10000 kPa, Liquid	521.08
463.88 K, 2500 kPa, Liquid	338.04
464.11 K, 5500 kPa, Liquid	418.4
467.52 K, 5500 kPa, Liquid	406.91
467.53 K, 10000 kPa, Liquid	508.72
467.58 K, 7000 kPa, Liquid	440.63
467.74 K, 8500 kPa, Liquid	473.19
468.21 K, 4000 kPa, Liquid	357.71
472.64 K, 8500 kPa, Liquid	459.74
472.67 K, 7000 kPa, Liquid	424.62
472.84 K, 5500 kPa, Liquid	384.97
472.94 K, 4000 kPa, Liquid	339.72
473.24 K, 10000 kPa, Liquid	491.15
505.6 K, 3500 kPa, Fluid (supercritical or subcritical phases)	132.11
505.8 K, 4500 kPa, Fluid (supercritical or subcritical phases)	215.46
506.21 K, 5500 kPa, Fluid (supercritical or subcritical phases)	263.63
506.39 K, 6500 kPa, Fluid (supercritical or subcritical phases)	301.19
509.39 K, 3500 kPa, Fluid (supercritical or subcritical phases)	114.34
509.87 K, 4500 kPa, Fluid (supercritical or subcritical phases)	196.58
510.29 K, 5500 kPa, Fluid (supercritical or subcritical phases)	244.35
510.5 K, 6500 kPa, Fluid (supercritical or subcritical phases)	281.9
516.22 K, 3500 kPa, Fluid (supercritical or subcritical phases)	102.13
516.95 K, 6500 kPa, Fluid (supercritical or subcritical phases)	262.61
517.48 K, 4500 kPa, Fluid (supercritical or subcritical phases)	161.27
518.73 K, 5500 kPa, Fluid (supercritical or subcritical phases)	206.26
519.67 K, 3500 kPa, Fluid (supercritical or subcritical phases)	108
520.35 K, 4500 kPa, Fluid (supercritical or subcritical phases)	144.87
521.7 K, 5500 kPa, Fluid (supercritical or subcritical phases)	199.75
522.21 K, 6500 kPa, Fluid (supercritical or subcritical phases)	243.32
526.46 K, 3500 kPa, Fluid (supercritical or subcritical phases)	116.09
527.21 K, 4500 kPa, Fluid (supercritical or subcritical phases)	126.63
528.59 K, 5500 kPa, Fluid (supercritical or subcritical phases)	173.63
529.79 K, 6500 kPa, Fluid (supercritical or subcritical phases)	222.12
532.59 K, 4500 kPa, Fluid (supercritical or subcritical phases)	114.85
533.14 K, 5500 kPa, Fluid (supercritical or subcritical phases)	166.48
533.59 K, 6500 kPa, Fluid (supercritical or subcritical phases)	210.67
534.66 K, 4500 kPa, Fluid (supercritical or subcritical phases)	113.71
535.53 K, 5500 kPa, Fluid (supercritical or subcritical phases)	159.52
536.07 K, 6500 kPa, Fluid (supercritical or subcritical phases)	205.77
536.58 K, 3500 kPa, Fluid (supercritical or subcritical phases)	132.72
540.66 K, 4500 kPa, Fluid (supercritical or subcritical phases)	121.9
541.18 K, 5500 kPa, Fluid (supercritical or subcritical phases)	155.19

speed of sound [m/s]
Settings	443.46 K	453.54 K	457.54 K	463 K	468.31 K	473.8 K	478.69 K	483.1 K	487.42 K	492.48 K
Gas	140.99	135.34	131.58	125.98	121.95	115.5	108.41	103.7	98.66	91.71
Liquid	384.46	336.71	315.85	290.41	263.51	237.38	210.25	185.8	162.27	135.68
